From patent US20170233409A1, “TYPE IV SECRETION SYSTEM INHIBITORS” (priority 2016, published 2017)

Test system: H. pylori
Test: H. pylori viability (cellular ATP, CellTiter-Glo)
Assay type: cell-based
Details: 150 μM; cellular ATP at 18 h of incubation

| SMILES | H. pylori Toxicity |
| --- | --- |
| O=C(O)[C@@H]1CSc2c(-c3cccc(C(F)(F)F)c3)c(Cc3cccc(COc4cccc5ccccc45)c3)cc(=O)n21 [CB151] | Toxic |
| O=C(O)[C@@H]1CSc2c(C3CC3)c(Cc3cccc(COc4cccc5ccccc45)c3)cc(=O)n21 [CB160] | Toxic |
| Cc1cccc(-c2sc3c(-c4cn(C)c5ccccc45)c(COc4cccc5ccccc45)c(CN4CCOCC4)c(=O)n3c2C(=O)O)c1.Cl [EC341] | Toxic |

Test system: H. pylori cag T4SS
Test: not given
Assay type: cell-based
Details: no bacterial pre-treatment, about 18 hours post-infection, HEK293-TLR9 cells

| SMILES | T4SS Inhibiton [50 μM] (TLR9 Activation Assay) |
| --- | --- |
| O=C(O)C1CSc2c(C3CC3)c(Cc3cccc4ccccc34)cc(=O)n21 (racemic) [rac-C10] | ++ |
| CCOc1ccc(Cc2cc(=O)n3c(c2C2CC2)SC[C@H]3C(=O)O)c2ccccc12 [(R)-JG131, (R)-8-cyclopropyl-7-((4-ethoxynaphthalen-1-yl)methyl)-5-oxo-2,3-dihydro-5H-thiazolo[3,2-a]pyridine-3-carboxylic acid] | +++ (Very good T4SS inhibition (reproducibly inhibits T4SS activity by at least 50%, with representative results of about 80% inhibition at higher concentrations)) |
| COc1ccc(Cc2cc(=O)n3c(c2C2CC2)SC[C@@H]3C(=O)O)c2ccccc12 [(S)-JG202, (S)-8-cyclopropyl-7-((4-methoxynaphthalen-1-yl)methyl)-5-oxo-2,3-dihydro-5H-thiazolo[3,2-a]pyridine-3-carboxylic acid] | ++ |
| COc1ccc2cc(Cc3cc(=O)n4c(c3C3CC3)SC[C@H]4C(=O)O)ccc2c1 [CB158, (R)-8-cyclopropyl-7-((6-methoxynaphthalen-2-yl)methyl)-5-oxo-2,3-dihydro-5H-thiazolo[3,2-a]pyridine-3-carboxylic acid] | + |
| O=c1cc(Cc2cccc3ccccc23)c(C2CC2)c2n1CCS2 [EC013] | +++ (Very good T4SS inhibition (reproducibly inhibits T4SS activity by at least 50%, with representative results of about 80% inhibition at higher concentrations)) |
| O=C(O)[C@H]1CSc2c(C3CC3)c(Cc3cccc4ccccc34)cc(=O)n21 [JG14, (S)-8-cyclopropyl-7-(naphthalen-1-ylmethyl)-5-oxo-2,3-dihydro-5H-thiazolo[3,2-a]pyridine-3-carboxylic acid] | ++ |
| O=C(O)[C@@H]1CSc2c(C3CC3)c(Cc3ccc4ccccc4c3)cc(=O)n21 [KSK61, (R)-8-cyclopropyl-7-(naphthalen-2-ylmethyl)-5-oxo-2,3-dihydro-5H-thiazolo[3,2-a]pyridine-3-carboxylic acid] | ++ |
| O=C(O)C1CSc2c(C3CC3)c(Cc3ccc(C(F)(F)F)c4ccccc34)cc(=O)n21 (centres unmarked) [KSK88, 8-cyclopropyl-5-oxo-7-((4-(trifluoromethyl)naphthalen-l1yl)methyl)-2,3-dihydro-5H-thiazolo[3,2-a]pyridine-3-carboxylic acid] | +++ (Very good T4SS inhibition (reproducibly inhibits T4SS activity by at least 50%, with representative results of about 80% inhibition at higher concentrations)) |
| O=C(Nc1ccccc1)C1CSc2c(C3CC3)c(Cc3cccc4ccccc34)cc(=O)n21 (centres unmarked) [KSK165] | +++ (Very good T4SS inhibition (reproducibly inhibits T4SS activity by at least 50%, with representative results of about 80% inhibition at higher concentrations)) |
| O=C(O)C1CSc2c(C3CC3)c(Cc3ccc(OC4O[C@H](CO)[C@@H](O)[C@@H](O)[C@@H]4O)c4ccccc34)cc(=O)n21 (stereo partly drawn) [PS402, 8-cyclopropyl-5-oxo-7-((4-(((3S,4R,5S,6R)-3,4,5-trihydroxy-6-(hydroxymethyl)tetrahydro-2H-pyran-2-yl)oxy)naphthalen-1-yl)methyl)-2,3-dihydro-5H-thiazolo[3,2-a]pyridine-3-carboxylic acid] | ++ |
| O=C(O)C1CS(=O)(=O)c2c(C3CC3)c(Cc3cccc4ccccc34)cc(=O)n21 (centres unmarked) [TW460, 8-cyclopropyl-7-(naphthalen-1-ylmethyl)-5-oxo-2,3-dihydro-5H-thiazolo[3,2-a]pyridine-3-carboxylic acid 1,1-dioxide] | + |
